From patent publication US12054562B2, “Cell-permeable inhibitory agent and methods of use thereof in treatment of cognitive and mood disorders” (priority 2015, dated 2024)

Tests used:
[1] = system: etomidate-induced memory deficits in mice; experiment: Novel object recognition task, prevention paradigm; type: in vivo, mouse; details: Etom 8 mg/kg plus α5 peptide 20 mg/kg i.p., NOR next day
Text: The novel object recognition task involves the presentation of two identical objects for visual inspection (in the case of humans and non-human primates) and exploration in the case of rodents. After a delay, one of the original objects is presented together with a new (novel) object. Humans and animals normally spend time more time looking at (or in the case of mice, exploring) the novel object. Indeed, the test relies on the innate preference of humans and animals for novelty. The inspection or interaction time differs only if the familiar object is recognized. Otherwise, the subject spends an equal amount of time inspecting both objects. […]
In the present study, mice were handled two times a day, 5 min each before start of behavioral experiments. Object recognition was assessed in a circle opaque chamber with the diameter of 38.5 cm in a regular lit room. […] Movement and interaction with the objects was recorded with a video camera that was mounted above the chamber. The exploratory behavior and mouse activity was analyzed blindly by a person with a good training and the software EthoVision, XT v11.5 provided by the Noldus Information Tech Inc., (Leesburg VA, USA). […] Memory was assessed by measuring the novelty preference ratio (i.e., the ratio of time spent exploring the novel object to the time spent exploring both objects). […]

[2] = system: α5GABAA receptor cell-surface expression; experiment: Receptor cell-surface ELISA assay in cultured hippocampal neurons; type: cell-based, mouse; details: neurons treated with peptide without exposure to etomidate

## NYFTKRGWAWDGKKAL [inhibitory peptide]
[1]
  etomidate-induced memory deficits (NOR, prevention): could prevent
[2]
  baseline α5GABAA receptors expression, total or cell surface level: does not alter
